Test results from patent US10787423B2, “Piperazine and piperidine derivatives, their synthesis and use thereof in inhibiting VDAC oligomerization, apoptosis and mitochondria dysfunction” (THE NATIONAL INSTITUTE FOR BIOTECHNOLOGY IN THE NEGEV LTD., priority 2015, dated 2020).

Columns and labels:
VDAC1 [1] = target: T1, VDAC1 (Homo sapiens, UniProt P21796); test: Selenite-induced VDAC1 oligomerization by EGS cross-linking and immunoblot in HEK-293 cells (Method B); format: cell-based; parameters: endogenous in cells; host or cells: HEK-293; details: HEK-293 cells, compound 2 h then selenite 15 μM 4 h; means±SD (n=3); read-out: VDAC1 oligomerization IC50
Experimental: (§1) Appropriate test cells (2.5-3 mg/ml) in PBS, were harvested after the treatment and incubated with the cross-linking reagent EGS at a ratio of 100-300 μM for sample of 2-3 mg protein/ml concentration (pH 8.3) for 15 minutes. Protein concentration was determined according to Lowry assay. Samples (60-80 μg protein) were subjected to SDS-PAGE by a standard technique and immunoblotting was performed using anti-VDAC1 antibodies. Gels were electro-transferred onto nitrocellulose membranes for immuno-staining. The membranes were incubated with a blocking solution containing 5% non-fat dry milk and 0.1% Tween-20 in Tris-buffered saline, followed by incubation with monoclonal anti-VDAC1, anti-Cytochrome c, anti-AIF or anti-actin antibodies. Membranes were then incubated with HRP-conjugated anti-mouse or anti-rabbit IgG (1:10,000), serving as secondary antibodies. Antibody labeling was detected by chemiluminescence. To detect VDAC1 oligomers, membranes were treated with 0.1 M glycine, pH 2.0, prior to immunoblotting and washed several times with 0.1% Tween-20 in Tris-buffered saline. Quantitative analysis of immuno-reactive VDAC1 dimer, trimer and multimer bands was performed using FUSION-FX (Vilber Lourmat, France).
The closed circle (●) indicates VBIT-4 (compound of Formula 1), the open circle (◯) indicates compound of Formula 10, and an open square (□) indicates VBIT-3 (compound of Formula 2).
(§2) d. IC50 values of the tested compounds were derived from the obtained data. The results shown correspond to means±SD (n=3).

purified VDAC1 = target: T2, purified VDAC1 (Rattus norvegicus, UniProt Q9Z2L0); test: Microscale thermophoresis (MST) binding to purified VDAC1; details: MST, purified VDAC1 133 nM, 20 min incubation; means±SD (n=3); read-out: VDAC1 binding affinities
T2 construct: rat liver mitochondria (5 mg/ml) in 10 mM Tris-HCl, pH 7.2, were incubated with 2% LDAO; from tissue; host or cells: rat liver mitochondria
Experimental: To obtain quantitative parameters of this interaction and derive a dissociation constant, e.g. a microscale thermophoresis (MST) interaction assay may be performed. In this manner, dissociation values are derived from the curves showing the affinity of the compounds of the invention to VDAC.
Briefly, rat liver mitochondria (5 mg/ml) in 10 mM Tris-HCl, pH 7.2, were incubated with 2% LDAO at 0° C. for 20 min, followed by centrifugation (30 min, 14,000 g) and the obtained supernatant was loaded onto a dry celite:hydroxyapatite (2:1) column. VDAC1 was eluted with a solution containing 2% LDAO, 10 mM Tris-HCl, pH 7.2, 50 mM NaCl, and 20 to 22 mM NaH2PO4, with VDAC1 detection by Coomassie blue staining. The VDAC1-containing fractions were dialyzed against 10 mM Tris-HCl, pH 7.2, and subjected to a second chromatography step on a carboxymethyl-cellulose (CMC) column from which VDAC1 was eluted with a solution containing 10 mM Tris-HCl, pH 7.2, 0.1% LDAO and 500 mM NaCl, detected as above. The VDAC1-containing fractions were collected and used for VDAC1 channel conductance and MST assays.
MST analysis was performed using a NanoTemper Monolith NT.115 apparatus. […]
Purified VDAC1 (133 nM), labeled using the NanoTemper fluorescent protein-labeling Kit BLUE (Nano Temper technologies, Munich, Germany), according to the manufactory instructions, was incubated with increasing concentrations of the following tested compounds: compound of Formula 10 (AKOS-022), compound of Formula 2 (VBIT-3), or racemic compound of Formula 1 (VBIT-4). After 20 min of incubation, the samples (3-5 μL) were loaded into MST-grade glass capillaries (Monolith NT Capillaries), and the thermophoresis process was measured using the Monolith-NT115 apparatus.
Fmax and Fmin represent the maximal and minimal fluorescence, respectively and F the fluorescence measured in the presence of the tested compound.
VDAC1 binding affinities of tested compounds were calculated from the MST measurements.

HEK-293 cells = test: Selenite-induced apoptosis, annexin V-FITC/PI staining and FACS, HEK-293 cells; format: cell-based; details: Homo sapiens, HEK293, compound 2 h then selenite 15 μM 4 h, means±SD (n=3)
Experimental: The ability of the compounds of general Formulae (I), (Ia), (Ib), (Ic), (Id), (II) and (IIa) to inhibit apoptosis may be analyzed by annexin-V/propidium iodide (PI) staining and flow cytometry.
Cells, e.g. HeLa cells (2×10^5), untreated or treated with apoptosis-inducing reagents, were analyzed for apoptotic cell death using PI, annexin V-FITC and flow cytometer analysis. Cells were collected (1500×g for 10 min), washed, and resuspended in 200 μl binding buffer (10 mM HEPES/NaOH, pH 7.4, 140 mM NaCl, and 2.5 mM CaCl2). Annexin V-FITC was added according to the recommended Protocol (Enzo Life Sciences, Switzerland), and the cells were incubated in the dark for 15 min. Cells were then washed with binding buffer and resuspended in 200 μl binding buffer, to which PI was added immediately before flow cytometry analysis. At least 10,000 events were collected, recorded on a dot plot, and analyzed by the FACSCalibur™ flow cytometer software (BD Biosciences, Franklin Lakes, N.J.).
b. Additionally, the inhibition of selenite-induced apoptosis by the compounds as analyzed using annexin V-FITC/PI staining and FACS, presented in the FIG. 15c.
as §2

VDAC1 [2] = target: T1, VDAC1; test: Selenite-induced VDAC1 oligomerization in HeLa cells, EGS cross-linking; format: cell-based; parameters: endogenous in cells; host or cells: HeLa; details: 22 h with selenite 8 μM and increasing concentrations
Experimental: as §1, with “To detect VDAC1 oligomers, membranes were treated with 0.1 M glycine, pH 2.0, prior to immunoblotting and washed several times with 0.1% Tween-20 in Tris-buffered saline.” left out
Cells (2.5 mg/ml) were washed with and resuspended in PBS, pH 8.3 and incubated with membrane-permeable cross-linker EGS (250 μM) at 30° C. for 15 min and then subjected to SDS-PAGE and immunoblotting using anti-VDAC1 antibodies. […] Cell death was analyzed using propidium iodide (PI) staining and flow cytometry.

dopaminergic neurons = test: MPTP-induced Parkinson-like disease mouse model, brain immunofluorescence; format: in vivo, C57BL/6N male mice; details: MPTP 20 mg/kg IP 5 days; 20 mg/kg in drinking water from day 3
Experimental: The Experimental protocols were approved by the Institutional Animal Care and Use Committee. Briefly, C57BL/6N male mice 3-months old were injected IP 3 times/week with vehicle (saline) as control. Parkinsonism was induced by repetitive intraperitoneal injection of 20 mg/kg 1-methyl-4-phenyl-1,2,3,6-tetrahydropyridine hydrochloride (MPTP), Sigma, Israel) in saline, for 5 consecutive days. Group 3 was injected with MPTP and at day 3 of MPTP treatment it was subjected to compound of Formula 3 (VBIT-12) 20 mg/kg in drinking water.
Brains from the scarified mice were analyzed for the pathophysiological features of PD-like mouse models as induced by MPTP and the effect of VBIT-12 on the dopaminergic neurons (DN) was analyzed. Fixed brains were subjected to coronal sections (5 μm thickness) including the Substantia nigra pars compacta (SNc), ventral tegmental area (VTA) and Substantia nigra pars reticular (SNR) (see FIG. 25B) and used for immunofluorescence (IF) (FIG. 25C). Evaluation of dopaminergic neuron degeneration was monitored using anti-Tyrosine hydroxylase (TH) antibodies, which is expressed in dopaminergic neurons.
This decrease was prevented by VBIT-12, as reflected by the increase of the number of cells stained with TH relative to the MPTP-treated group not subjected to VBIT-12.
Sections were also subjected for staining with anti-VDAC1 antibodies (FIG. 25D). […]

T1 sequence (P21796 whole entry): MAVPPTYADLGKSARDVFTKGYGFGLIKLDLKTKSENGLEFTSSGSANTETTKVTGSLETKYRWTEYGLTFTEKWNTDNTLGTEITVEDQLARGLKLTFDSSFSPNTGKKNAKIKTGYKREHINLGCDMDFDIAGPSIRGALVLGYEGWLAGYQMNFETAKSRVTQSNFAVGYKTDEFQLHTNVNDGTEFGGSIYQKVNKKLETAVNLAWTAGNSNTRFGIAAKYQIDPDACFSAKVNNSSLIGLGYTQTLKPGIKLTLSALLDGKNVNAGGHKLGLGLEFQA
T2 sequence (Q9Z2L0 whole entry): as the sequence (P21796 whole entry) above, with T55N, M129V, A160S, I227V counted along it

| SMILES | IC50 (VDAC1 [1]) [µM] | Kd (purified VDAC1) [µM] | IC50 (HEK-293 cells) [µM] | selenite-induced VDAC1 oligomerization (VDAC1 [2]) | VDAC1 levels in dopaminergic neurons (anti-VDAC1 staining) (dopaminergic neurons) | dopaminergic neurons in SNc (TH staining) (dopaminergic neurons) |
| --- | --- | --- | --- | --- | --- | --- |
| O=C(CC(CO)N1CCN(c2ccc(OC(F)(F)F)cc2)CC1)Nc1ccc(Cl)cc1 (racemic) [Formula 1, N-(4-chlorophenyl)-4-hydroxy-3-(4-(4-(trifluoromethoxy)phenyl)-piperazin-1-yl)butanamide] | 1.9 | 17 ± 5.3 | 2.9 ± 0.12 | – | – | – |
| O=C(O)CNC(=O)C1(Nc2ccccc2)CCN(Cc2cccc3ccccc23)CC1 [Formula 3] | – | – | – | Inhibited | decreased | protected against neuronal loss |
